Test results reported in patent US6627399B1, “RNA polymerase transcription promoters and nucleic acid sequencing method” (Riken, priority 1998, dated 2003).

Target: wild-type T7 RNA polymerase (Escherichia phage T7, UniProt P00573)
Assay: Accelerating effect of polyamines on in vitro transcription activity of T7 RNA polymerase ([α32P]UTP incorporation, gel electrophoresis)
Format: biochemical, bacteriophage T7
Set-up: key: fold radioactivity relative to blank without polyamine
Conditions: polyamine final concentration 2 mM, 37° C. for one hour; amplification of radioactivity of transcription products compared to a blank without polyamine
Protocol: An activation level was evaluated by observing an effect of a polyamine on in vitro transcription activation using bacteriophage T7 RNA polymerase in the reaction system below.
Each polyamine was added to 10 μl of reaction solution (40 mM Tris-Cl, pH 8.0, 8 mM MgCl2, 5 mM DTT, 200 µM GMP, wild-type T7 RNA polymerase 5U, 0.2 μCi [α32P]UTP, dsDNA produced by cleavage of pBluescript [Stratagene] by a restriction enzyme Pvull 500 μM as rNTP template DNA) to yield a final concentration of 2 mM, then reacted at 37° C. for one hour. After the reaction, 10 μl of formamide loading dye (98% formamide, 10 mM EDTA) was added to the products, heated at 90° C. for modification, subsequently analyzed by electrophoresis on 4% acrylamide gel. The gel was dried after the electrophoresis, observed for radioactivity contained in the transcription products using the BAS2000 image analysis system (Fujiphotofilm Inc.), and evaluated for activation level of each polyamine.
Data is given in amplification of radioactivity compared to a blank in which a reaction is carried out in parallel in the same condition excepting no polyamine was added.

wild-type T7 RNA polymerase, sequence (P00573 whole entry): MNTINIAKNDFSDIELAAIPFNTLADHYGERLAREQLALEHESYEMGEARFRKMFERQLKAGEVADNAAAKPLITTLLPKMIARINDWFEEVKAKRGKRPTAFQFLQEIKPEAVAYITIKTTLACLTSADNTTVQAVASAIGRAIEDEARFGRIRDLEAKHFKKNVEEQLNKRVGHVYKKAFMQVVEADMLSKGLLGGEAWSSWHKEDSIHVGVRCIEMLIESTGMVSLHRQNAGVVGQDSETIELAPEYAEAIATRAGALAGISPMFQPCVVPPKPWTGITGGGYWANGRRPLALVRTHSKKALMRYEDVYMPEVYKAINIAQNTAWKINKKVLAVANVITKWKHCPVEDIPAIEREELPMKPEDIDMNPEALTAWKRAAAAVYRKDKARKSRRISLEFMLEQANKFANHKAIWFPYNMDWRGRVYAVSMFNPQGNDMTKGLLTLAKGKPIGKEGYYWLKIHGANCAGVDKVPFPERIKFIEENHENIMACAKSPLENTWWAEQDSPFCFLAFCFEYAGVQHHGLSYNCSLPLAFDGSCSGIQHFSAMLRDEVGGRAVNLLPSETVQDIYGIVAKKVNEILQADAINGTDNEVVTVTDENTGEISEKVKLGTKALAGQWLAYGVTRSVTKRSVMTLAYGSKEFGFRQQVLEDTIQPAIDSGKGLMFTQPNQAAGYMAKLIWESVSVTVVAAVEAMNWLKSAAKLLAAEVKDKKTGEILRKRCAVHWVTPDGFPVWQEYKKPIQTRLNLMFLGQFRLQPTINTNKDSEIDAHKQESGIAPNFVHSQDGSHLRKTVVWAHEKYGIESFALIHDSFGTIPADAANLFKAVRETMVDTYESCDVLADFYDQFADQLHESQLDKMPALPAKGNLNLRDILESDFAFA

Row | Compound | Activity Level
1 | CCNCCCNCCCCN [Compound 18, 1-ethylamino-8-amino-4-azaoctane] | 1.12
2 | CCNCCCCNCCCCCCCCNCCCCNCC [Compound 15e, 1, 18-di(ethylamino)-5,14-diazaoctadecane] | 2.52
3 | CCNCCCCNCCCCNCCCCNCC [Compound 15a, 1,14-di(ethylamino)-5,10-diazatetradecane] | 1.21
4 | CCNCCCCCNCC [Compound 23, N1,N5-di(ethylamino)pentane] | 3.52
5 | CCNCCCCNCCCCCCCCCNCCCCNCC [Compound 15f, 1,19-di(ethylamino)-5,15-diazanonadecane] | 1.18
6 | CCNCCCCNCCCCCCCNCCCCNCC [Compound 15d, 1,17-di(ethylamino)-5,13-diazaheptadecane] | 1.29
7 | CCNCCCCNCCCCCNCCCCNCC [Compound 15b, 1,15-di(ethylamino)-5,11-diazapentadecane] | 1.18
8 | CCN(CCCCCN(CC)S(=O)(=O)c1ccc(C)cc1)S(=O)(=O)c1ccc(C)cc1 [Compound 22, N1,N5-di(p-toluenesulfonyl)-di(ethylamino)pentane] | 1.43
9 | NCCCCNCCCCCCCCNCCCCN [Compound 19, 1,18-diamino-5,14-diazaoctadecane] | 1.41
10 | CCNCCCCCCCCNCC [Compound 21, N1,N8di(ethylamino)-octane] | 4.91
11 | CCN(CCCCCCCCN(CC)S(=O)(=O)c1ccc(C)cc1)S(=O)(=O)c1ccc(C)cc1 [Compound 20, N1,N8-di(p-toluenesulfonyl)-di(ethylamino)-octane] | 1.11
12 | CCNCCCCNCCCCCCNCCCCNCC [Compound 15c, 1,16-di (ethylamino)-5,12-diazahexadecane] | 1.12
13 | CCNCCCCNCCCCCCCCCCNCCCCNCC [Compound 15g, 1,20-di(ethylamino)-5,16-diazaeicosane] | 2.01
